Experimental findings from patent US20210198277A1, “AMINE-SUBSTITUTED ARYL OR HETEROARYL COMPOUNDS” (Epizyme, Inc., priority 2016, published 2021) are described below.

Like-named read-outs stand apart in the source and are kept apart here. Some results are limits rather than exact numbers.

For the test, the target named is T1, EHMT2 (Homo sapiens, UniProt Q96KQ7).
T1 construct: host or cells: MDA-MB-231
T1 sequence (Q96KQ7 1-1210): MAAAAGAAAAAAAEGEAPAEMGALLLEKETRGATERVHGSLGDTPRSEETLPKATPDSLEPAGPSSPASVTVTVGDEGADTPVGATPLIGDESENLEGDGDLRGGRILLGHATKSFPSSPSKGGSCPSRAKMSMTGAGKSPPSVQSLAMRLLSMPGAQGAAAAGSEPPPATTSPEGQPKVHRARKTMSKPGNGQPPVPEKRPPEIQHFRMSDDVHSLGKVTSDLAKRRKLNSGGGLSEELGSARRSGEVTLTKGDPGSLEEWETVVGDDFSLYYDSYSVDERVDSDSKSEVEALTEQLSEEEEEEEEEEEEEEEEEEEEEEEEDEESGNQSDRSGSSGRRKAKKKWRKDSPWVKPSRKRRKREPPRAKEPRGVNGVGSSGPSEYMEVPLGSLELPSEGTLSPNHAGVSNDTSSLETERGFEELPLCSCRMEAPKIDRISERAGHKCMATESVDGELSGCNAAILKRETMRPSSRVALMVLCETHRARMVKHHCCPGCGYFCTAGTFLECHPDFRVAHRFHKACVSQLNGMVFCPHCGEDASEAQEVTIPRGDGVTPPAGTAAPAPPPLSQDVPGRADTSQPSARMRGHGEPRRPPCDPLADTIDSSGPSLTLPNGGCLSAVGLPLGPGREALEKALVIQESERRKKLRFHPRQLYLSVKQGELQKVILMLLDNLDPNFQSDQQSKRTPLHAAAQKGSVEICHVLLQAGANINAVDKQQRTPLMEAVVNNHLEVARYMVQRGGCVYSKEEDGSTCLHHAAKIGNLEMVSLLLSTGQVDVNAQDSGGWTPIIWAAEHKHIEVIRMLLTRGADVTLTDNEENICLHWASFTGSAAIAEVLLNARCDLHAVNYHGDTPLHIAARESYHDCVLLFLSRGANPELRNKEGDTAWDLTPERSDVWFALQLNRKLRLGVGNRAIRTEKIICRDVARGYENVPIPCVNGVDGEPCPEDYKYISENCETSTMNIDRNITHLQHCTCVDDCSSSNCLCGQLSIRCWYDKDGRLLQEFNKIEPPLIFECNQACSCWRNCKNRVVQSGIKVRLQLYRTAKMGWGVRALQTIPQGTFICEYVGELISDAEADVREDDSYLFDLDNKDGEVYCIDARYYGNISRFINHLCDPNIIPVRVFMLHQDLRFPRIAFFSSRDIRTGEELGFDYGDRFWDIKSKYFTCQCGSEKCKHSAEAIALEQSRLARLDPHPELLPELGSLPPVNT
Description: MDA-MB-231 H3K9me2 in-cell Western assay (EHMT2 ICW). It is filed as cell-based. Conditions: MDA-MB-231 H3K9me2 in-cell Western, read-out: EHMT2 ICW (IC50 μM). The essentials: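 Infrared read-out at 800 and 700 nm (H3K9me2 antibody vs DRAQ5 DNA stain) of fixed MDA-MB-231 cells after 48 h compound treatment at 37 °C. Well ratios were converted to percent inhibition, and IC50 was obtained by variable-slope nonlinear regression on triplicates.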

As to `CNc1ccnc(Nc2ccc(OC)c(OCC3CCN(CCOC)C3)c2)n1` (centres unmarked) [Compound 410, N^2-(4-methoxy-3-((1-(2-methoxyethyl)pyrrolidin-3-yl)methoxy)phenyl)-N^4-methylpyrimidine-2,4-diamine], for the setting “Table III”, the IC50 is above 10 µM. On to `COc1ccc(Nc2nccc(NCC(=O)N3CCOCC3)n2)cc1OCCCN1CCCC1` [Compound 51], for which the IC50 (Table II) lay within 1 to 10 µM.

Take `CNc1cc(C)nc(Nc2ccc(F)c(OCCCN3CCCC3)c2)n1` [Compound 356]: for the setting “Table III”, the IC50 is above 10 µM. Take `CNc1ccnc(Nc2ccc(OC)c(OCC3CCN(C)C3)c2)n1` (single isomer, unassigned) [Compound 415]: the 50% inhibitory concentration (IC50) (Table III) lay within 1 to 10 µM. On the same count and under the same terms, the result for `CNc1cc(Nc2cc(OCCCN3CCCC3)c(OC)cn2)ccn1` [Compound 372] reads 0.1 to 1 µM; that for `CNc1nc(Nc2ccc(OC)c(OCCCN3CCCC3)c2)ncc1C#N` [Compound 357], above 10 µM. Still for that read-out and setting: next, `CNc1cncc(Nc2ccc(OC)c(OCCCN3CCCC3)c2)n1` [Compound 371]: above 10 µM.

On to `CNc1nc(Nc2ccc(OC)c(OCCCN3CCCC3)c2)ncc1C(F)(F)F` [Compound 358], for which, under “Table III”, the half-maximal inhibitory concentration (IC50) was above 10 µM. Take `CNc1cc(C)nc(Nc2cccc(OCCCN3CCCC3)c2)n1` [Compound 391]: for the setting “Table III”, the IC50 lay in the range of 1 to 10 µM. With `CNc1cc(C)nc(Nc2ccc(OC)c(OCC3CCN(C)C3)c2)n1` (single isomer, unassigned) [Compound 417], the IC50 (Table III) lay in the range of 1 to 10 µM. The same measure, in the same setting: next, `CCc1cc(NC)nc(Nc2ccc(OC)c(OCCCN3CC[C@@H](F)C3)c2)n1` [Compound 385]: 1 to 10 µM; `CNc1ccnc(Nc2cccc(N3CCC(N)C3)c2)n1` (centres unmarked) [Compound 400]: above 10 µM. Regarding `CNc1ccnc(Nc2ccc(OC)c(OCC3CCN(C)C3)c2)n1` (single isomer, unassigned) [Compound 416], the 50% inhibitory concentration (IC50) (Table III) was 0.1 to 1 µM.

Consider `CCc1cc(NC)nc(Nc2ccc(OC)c(OCCCN3CCCC3)c2)n1` [Compound 364], for which the IC50 (Table III) fell in the range of 0.1 to 1 µM. The same measure, in the same setting: next, `CNc1ccnc(Nc2ccc3cn(CCN(C)C)nc3c2)n1` [Compound 404, N^2-(2-(2-(dimethylamino)ethyl)-2H-indazol-6-yl)-N^4-methylpyrimidine-2,4-diamine]: above 10 µM; `CNc1ccnc(Nc2ccc(OC)c(OCCCN3CC(O)C3)c2)n1` [Compound 414, 1-(3-(2-methoxy-5-((4-(methylamino)pyrimidin-2-yl)amino)phenoxy)propyl)azetidin-3-ol]: 0.1 to 1 µM; `CNc1ccnc(Nc2ccc(OC)c(COCCN3CCCC3)c2)n1` [Compound 382]: 0.1 to 1 µM. Take `CNc1ccnc(Nc2ccc(OC)c(OCCCN3CCCCC3)c2)n1` [Compound 390]: the concentration for half-maximal inhibition (IC50) (Table III) was 0.1 to 1 µM. On the same count and under the same terms, next, `CNc1ccnc(Nc2ccc(OC)c(OCC3CCN(C)C3)c2)n1` (centres unmarked) [Compound 393]: 0.1 to 1 µM; `CNc1ccnc(Nc2ccc(OC)c(OCCN3CCOCC3)c2)n1` [Compound 361]: above 10 µM; `CNc1ccnc(Nc2ccc3c(C)nn(CCCN(C)C)c3c2)n1` [Compound 389]: above 10 µM. Consider `CCCN1CCC(COc2cc(Nc3nccc(NC)n3)ccc2OC)C1` (centres unmarked) [Compound 420, N^2-(4-methoxy-3-((1-propylpyrrolidin-3-yl)methoxy)phenyl)-N^4-methylpyrimidine-2,4-diamine], for which the IC50 (Table III) lay within 1 to 10 µM.

For the compound `CCNC(=O)c1cc(Nc2nccc(NC)n2)ccc1Cl` [Compound 396], for the setting “Table III”, the IC50 is above 10 µM.

Turning to `CNc1ccnc(Nc2ccc(OC)c(OCC3CCN(C4CC4)C3)c2)n1` (centres unmarked) [Compound 411, N^2-(3-((1-cyclopropylpyrrolidin-3-yl)methoxy)-4-methoxyphenyl)-N^4-methylpyrimidine-2,4-diamine], the half-maximal inhibitory concentration (IC50) (Table III) is 0.1 to 1 µM. Regarding `COc1ccc(Nc2nccc(NCC3CCN(C(C)=O)CC3)n2)cc1COCCN1CC(F)C1` [Compound 57], the half-maximal inhibitory concentration (IC50) (Table II) lay within 1 to 10 µM. Same read-out and setting: next, `COc1ccc(Nc2nccc(N3Cc4cn[nH]c4C3)n2)cc1OCCCN1CCCC1` [Compound 53]: 1 to 10 µM.

On to `CNc1ccnc(Nc2ccc3cn(CCCN(C)C)nc3c2)n1` [Compound 405], for which, where the note is “Table III”, the IC50 was above 10 µM. On to `CNc1ccnc(Nc2ccc(OC)c(COC3CCN(C)C3)c2)n1` (centres unmarked) [Compound 407, N^2-(4-methoxy-3-(((1-methylpyrrolidin-3-yl)oxy)methyl)phenyl)-N^4-methylpyrimidine-2,4-diamine], for which the IC50 (Table III) was in the range of 0.1 to 1 µM. Take `COc1ccc(Nc2cnnc(NCC3CCN(C(C)=O)CC3)c2)cc1OCCCN1CCCC1` [Compound 366]: for the setting “Table III”, the 50% inhibitory concentration (IC50) was above 10 µM. On the same count and under the same terms, the result for `CNc1cc(C#N)nc(Nc2ccc(OC)c(OCCCN3CCCC3)c2)n1` [Compound 384] reads above 10 µM. Regarding `CNc1ccnc(Nc2ccc(OC)c(OCCCN3CCCC3)c2)c1` [Compound 379], for the setting “Table III”, the concentration for half-maximal inhibition (IC50) was 1 to 10 µM.

As for `COc1ccc(Nc2ccc3cn(C)nc3n2)cc1OCCCN1CCCC1` [Compound 402], the IC50 (Table III) is above 10 µM. As for `CNc1ccnc(Nc2ccc(OC)c(OC[C@H](O)CN3CCCC3)c2)n1` (single isomer, unassigned) [Compound 376], the half-maximal inhibitory concentration (IC50) (Table III) was in the range of 1 to 10 µM.

For the compound `CNc1ccnc(Nc2ccc3ccn(CCN4CCCC4)c(=O)c3c2)n1` [Compound 381], the 50% inhibitory concentration (IC50) (Table III) is above 10 µM. On to `CNc1ccnc(Nc2ccc(OC)c(OCCCN(C)C)c2)n1` [Compound 387], for which the IC50 (Table III) fell in the range of 0.1 to 1 µM.

As for `CCNC(=O)c1cc(Nc2nccc(NC)n2)ccc1OC` [Compound 395], for the setting “Table III”, the IC50 was above 10 µM. For `COc1ccc(Nc2nccc(NCC3CCNCC3)n2)cc1OCCCN1CCCC1` [Compound 90], under “Table II”, the IC50 is above 10 µM. As to `COc1ccc(Nc2nccc(N)n2)cc1OCCCN1CCCC1` [Compound 369], the IC50 (Table III) was 1 to 10 µM. For the compound `COc1ccc(Nc2nccc(NCC(=O)N(C)c3ccccc3)n2)cc1OCCCN1CCCC1` [Compound 52], the concentration for half-maximal inhibition (IC50) (Table II) lay within 1 to 10 µM. Consider `CCN1CCC(COc2cc(Nc3nccc(NC)n3)ccc2OC)C1` (centres unmarked) [Compound 408, N^2-(3-((1-ethylpyrrolidin-3-yl)methoxy)-4-methoxyphenyl)-N^4-methylpyrimidine-2,4-diamine], for which the half-maximal inhibitory concentration (IC50) (Table III) was in the range of 0.1 to 1 µM.

With `CNc1ccnc(Nc2ccc3cnn(CCN(C)C)c3c2)n1` [Compound 386], for the setting “Table III”, the 50% inhibitory concentration (IC50) is above 10 µM. On the same count and under the same terms, next, `COc1ccc(Nc2ccnc3[nH]ccc23)cc1OCCCN1CCCC1` [Compound 374]: above 10 µM.

Consider `COc1ccc(Nc2nccc(NC3CCN(C(C)=O)CC3)n2)cc1OCCCN1CCCC1` [Compound 54], for which the IC50 (Table II) lay within 1 to 10 µM. Turning to `COc1ccc(Nc2nccc(NCC3CCOCC3)n2)cc1OC1CC2(C1)CN(C)C2` [Compound 367], the IC50 (Table III) was above 10 µM. On to `COc1ccc(Nc2nccc3[nH]ncc23)cc1OCCCN1CCCC1` [Compound 373], for which the 50% inhibitory concentration (IC50) (Table III) is above 10 µM. With `CCNC(=O)c1cccc(Nc2nccc(NC)n2)c1` [Compound 394], the half-maximal inhibitory concentration (IC50) (Table III) is above 10 µM. Same read-out and setting: next, `CNc1ccnc(Nc2ccc3c(c2)N(C(=O)CCN(C)C)CC3)n1` [Compound 363]: above 10 µM; `CNc1ccnc(Nc2cccc(COCCN3CCCC3)c2)n1` [Compound 383]: above 10 µM. For `CNc1ccnc(Nc2ccc(OC)c(OCC3CCN(CC4CC4)C3)c2)n1` (centres unmarked) [Compound 422, N^2-(3-((1-(cyclopropylmethyl)pyrrolidin-3-yl)methoxy)-4-methoxyphenyl)-N^4-methylpyrimidine-2,4-diamine], the IC50 (Table III) fell in the range of 1 to 10 µM. The same measure, in the same setting: the result for `CNc1ccnc(Nc2ccc(Cl)c(OCCCN3CCCC3)c2)n1` [Compound 398] reads 1 to 10 µM. `COc1ccc(Nc2nccc(NCC3CCN(CC(F)(F)F)CC3)n2)cc1OCCCN1CCCC1` [Compound 4, N^2-(4-methoxy-3-(3-(pyrrolidin-1-yl)propoxy)phenyl)-N^4-((1-(2,2,2-trifluoroethyl)piperidin-4-yl)methyl)pyrimidine-2,4-diamine]: for the setting “Table II”, the 50% inhibitory concentration (IC50) lay within 0.1 to 1 µM. Consider `CNc1ccnc(Nc2ccc(OC)c(OC[C@@H](O)CN3CCCC3)c2)n1` (single isomer, unassigned) [Compound 377], for which, under “Table III”, the IC50 is above 10 µM. The same measure, in the same setting: next, `CNc1cnnc(Nc2ccc(OC)c(OCCCN3CCCC3)c2)c1` [Compound 370]: above 10 µM.

What is called IC50 is the concentration at which inhibition is half-maximal.
